Data: patent US4175125A, “Method for treating methicillin resistant staphylococcus aureus” (Eli Lilly and Company, priority 1978, dated 1979)
Structures can show the parent of a compound that is named as a salt. Where two headings read alike, the source gives them in different places.

System: Streptococcus pyogenes, strain C203
Assay: Streptococcus pyogenes infection in mice, median effective dose (Example 12)
Assay type: in vivo
Description: The compound 7-[2"-(3"-chloro-4"-fluorophenyltio)acetamido]cephalosporanic acid, prepared as described in Example 8, was tested for antibiotic effectiveness against Streptococcus pyogenes, strain C203 infections in mice, and is compared with the effectiveness of cephaloridine in the same test. Experience has shown with other compounds, some of which are now commercial antibiotics, that a compound effective against Streptococcus pyrogenes, strain C203 in this test will be effective against Staphylococcus aureus strains in clinical use. This is intended as further evidence that the compounds of the method of this invention should be effective antibiotics in clinical situations.
In this test, a standard in vivo test method described by Wick, W. E., F. Streightoff, and D. H. Holmes. 1961, in J. Bacteriol., 81: 233-235 was used. The oral and subcutaneous median effective doses (ED50) necessary to cure 50 percent of the mice were calculated according to the method of Reed and Muench (Reed, L. J., and H. Meunch. 1938. Am. J. Hyg. 27: 493-497) The results were as follows: […]

SMILES	ED50 (C203, po)	ED50 (C203, sc)	ED50 (C203, oral, infecting challenge 27.9 (XLD50), read-out: ED50)	ED50 (C203, sc, subcut, infecting challenge 27.9 (XLD50), read-out: ED50)
O=C(Cc1cccs1)N[C@@H]1C(=O)N2C(C(=O)[O-])=C(C[n+]3ccccc3)CS[C@H]12 [Cephaloridine, cephaloridine, reference compound]	0.323 mg/kg	0.1 mg/kg		
CC(=O)OCC1=C(C(=O)O)N2C(=O)C(NC(=O)CSc3ccc(F)c(Cl)c3)C2SC1 (stereo not shown) [Example 8, 7-(3'-chloro-4-fluorophenylthioacetamido)cephalosporanic acid, sodium salt]			7 mg/kg	< 0.21 mg/kg
